# From patent publication US9260439B2, “Dihydropyrrolopyrimidine derivatives” (PFIZER INC., priority 2014, dated 2016)
# Target: truncated PI3Kα (p110α/iSH2 p85α) (Homo sapiens (Human), UniProt P42336)
# Test: PI3KA_Act fluorescence polarization kinase assay (Ki)
# Format: biochemical
# Settings: 1 mM ATP
# Method in brief: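 Ki values result from fitting fluorescence polarization signals to the Morrison equation for tight-binding competitive inhibitors. The detector was GST-Grp1 PH domain with TAMRA-PIP3, read after a 30 min room-temperature reaction of 0.5 nM truncated PI3Kα and 30 μM PIP2 at pH 7.4 in HEPES/NaCl/MgCl2/DTT/CHAPS buffer. Compounds were tested as 12-point 3-fold dilutions from 3 μM.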
# truncated PI3Kα (p110α/iSH2 p85α), sequence (P42336 whole entry, the tested form may be a part): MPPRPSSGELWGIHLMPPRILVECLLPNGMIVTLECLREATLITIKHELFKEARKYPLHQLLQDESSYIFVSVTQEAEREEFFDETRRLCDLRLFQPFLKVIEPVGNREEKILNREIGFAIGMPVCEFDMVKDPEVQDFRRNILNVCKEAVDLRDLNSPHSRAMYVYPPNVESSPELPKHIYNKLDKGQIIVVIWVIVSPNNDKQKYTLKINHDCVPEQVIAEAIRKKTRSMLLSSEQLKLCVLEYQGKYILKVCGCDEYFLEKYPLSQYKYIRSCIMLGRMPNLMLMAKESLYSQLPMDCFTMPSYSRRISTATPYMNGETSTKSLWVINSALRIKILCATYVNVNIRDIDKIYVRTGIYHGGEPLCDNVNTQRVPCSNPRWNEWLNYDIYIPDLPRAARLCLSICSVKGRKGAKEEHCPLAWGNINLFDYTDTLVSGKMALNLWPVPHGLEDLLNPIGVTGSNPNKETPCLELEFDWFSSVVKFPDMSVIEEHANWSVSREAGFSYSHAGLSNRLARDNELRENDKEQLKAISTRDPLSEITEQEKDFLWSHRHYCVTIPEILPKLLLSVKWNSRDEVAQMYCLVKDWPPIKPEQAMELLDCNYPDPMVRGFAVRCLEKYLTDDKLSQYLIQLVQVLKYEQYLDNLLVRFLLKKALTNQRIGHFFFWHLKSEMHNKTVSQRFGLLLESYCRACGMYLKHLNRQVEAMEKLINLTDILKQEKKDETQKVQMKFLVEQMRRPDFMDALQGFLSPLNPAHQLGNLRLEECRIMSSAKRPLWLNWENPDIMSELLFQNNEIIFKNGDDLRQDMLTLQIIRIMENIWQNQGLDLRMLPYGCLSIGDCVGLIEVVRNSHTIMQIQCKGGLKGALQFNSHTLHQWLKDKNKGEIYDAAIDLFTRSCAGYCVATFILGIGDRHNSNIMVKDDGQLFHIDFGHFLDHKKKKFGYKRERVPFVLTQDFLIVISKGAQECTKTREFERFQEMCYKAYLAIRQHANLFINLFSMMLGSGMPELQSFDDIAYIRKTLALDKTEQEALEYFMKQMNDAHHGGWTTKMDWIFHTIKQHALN
row,SMILES,PI3KA_Act Ki
1,"C[C@H]1COCCN1c1nc(-c2cnc(N)nc2)c2c(n1)N([C@@]1(C)CCN(C(=O)[C@H](N)CF)C1)CC2.Cl [Example 480, (2S)-2-amino-1-[(3S)-3-{4-(2-aminopyrimidin-5-yl)-2-[(3S)-3-methylmorpholin-4-yl]-5,6-dihydro-7H-pyrrolo[2,3-d]pyrimidin-7-yl}-3-methylpyrrolidin-1-yl]-3-fluoropropan-1-one hydrochloride]",<0.018 nM
2,"C[C@H]1COCCN1c1nc(-c2cnc(N)nc2)c2c(n1)N([C@@]1(C)CCN(C(=O)[C@@H](N)C3CC3)C1)CC2.Cl [Example 481, (2S)-2-amino-1-[(3S)-3-{4-(2-aminopyrimidin-5-yl)-2-[(3S)-3-methylmorpholin-4-yl]-5,6-dihydro-7H-pyrrolo[2,3-d]pyrimidin-7-yl}-3-methylpyrrolidin-1-yl]-2-cyclopropylethanone hydrochloride]",0.149 nM
3,"C[C@H]1COCCN1c1nc(-c2cnc(N)nc2)c2c(n1)N([C@@]1(C)CCN(C(=O)[C@H](N)C3CC3)C1)CC2.Cl [Example 482, (2R)-2-amino-1-[(3S)-3-{4-(2-aminopyrimidin-5-yl)-2-[(3S)-3-methylmorpholin-4-yl]-5,6-dihydro-7H-pyrrolo[2,3-d]pyrimidin-7-yl}-3-methylpyrrolidin-1-yl]-2-cyclopropylethanone hydrochloride]",0.022 nM
4,"C[C@H]1COCCN1c1nc(-c2cnc(N)nc2)c2c(n1)N([C@@]1(C)CCN(C(=O)CN(C)C)C1)CC2 [Example 483, 1-[(3S)-3-{4-(2-aminopyrimidin-5-yl)-2-[(3S)-3-methylmorpholin-4-yl]-5,6-dihydro-7H-pyrrolo[2,3-d]pyrimidin-7-yl}-3-methylpyrrolidin-1-yl]-2-(dimethylamino)ethanone]",0.049 nM
5,"C[C@H]1COCCN1c1nc(-c2cnc(N)nc2)c2c(n1)N([C@@]1(C)CCN(C(=O)C(C)(C)CN)C1)CC2.Cl [Example 484, 3-amino-1-[(3S)-3-{4-(2-aminopyrimidin-5-yl)-2-[(3S)-3-methylmorpholin-4-yl]-5,6-dihydro-7H-pyrrolo[2,3-d]pyrimidin-7-yl}-3-methylpyrrolidin-1-yl]-2,2-dimethylpropan-1-one hydrochloride]",<0.018 nM
6,"C[C@H]1COCCN1c1nc(-c2cnc(N)nc2)c2c(n1)N([C@@]1(C)CCN(C(=O)[C@](C)(N)CO)C1)CC2.Cl [Example 485, (2R)-2-amino-1-[(3S)-3-{4-(2-aminopyrimidin-5-yl)-2-[(3S)-3-methylmorpholin-4-yl]-5,6-dihydro-7H-pyrrolo[2,3-d]pyrimidin-7-yl}-3-methylpyrrolidin-1-yl]-3-hydroxy-2-methylpropan-1-one hydrochloride]",<0.018 nM
7,"C[C@H]1COCCN1c1nc(-c2cnc(N)nc2)c2c(n1)N([C@@]1(C)CCN(C(=O)[C@@](C)(N)CO)C1)CC2.Cl [Example 486, (2S)-2-amino-1-[(3S)-3-{4-(2-aminopyrimidin-5-yl)-2-[(3S)-3-methylmorpholin-4-yl]-5,6-dihydro-7H-pyrrolo[2,3-d]pyrimidin-7-yl}-3-methylpyrrolidin-1-yl]-3-hydroxy-2-methylpropan-1-one hydrochloride]",<0.018 nM
8,"C[C@H]1COCCN1c1nc(-c2cnc(N)nc2)c2c(n1)N([C@@]1(C)CCN(C(=O)C(C)(N)CO)C1)CC2.Cl (stereo partly drawn) [Example 487, 2-amino-1-[(3S)-3-{4-(2-aminopyrimidin-5-yl)-2-[(3S)-3-methylmorpholin-4-yl]-5,6-dihydro-7H-pyrrolo[2,3-d]pyrimidin-7-yl}-3-methylpyrrolidin-1-yl]-3-hydroxy-2-methylpropan-1-one hydrochloride]",0.011 nM
9,"CNC(C)(C)C(=O)N1CC[C@](C)(N2CCc3c(-c4cnc(N)nc4)nc(N4CCOC[C@@H]4C)nc32)C1.Cl [Example 488, 1-[(3S)-3-{4-(2-aminopyrimidin-5-yl)-2-[(3S)-3-methylmorpholin-4-yl]-5,6-dihydro-7H-pyrrolo[2,3-d]pyrimidin-7-yl}-3-methylpyrrolidin-1-yl]-2-methyl-2-(methylamino)propan-1-one hydrochloride]",<0.018 nM
10,"C[C@H]1COCCN1c1nc(-c2cnc(N)nc2)c2c(n1)N([C@@]1(C)CCN(C(=O)C(F)(F)CN)C1)CC2.Cl [Example 489, 3-amino-1-[(3S)-3-{4-(2-aminopyrimidin-5-yl)-2-[(3S)-3-methylmorpholin-4-yl]-5,6-dihydro-7H-pyrrolo[2,3-d]pyrimidin-7-yl}-3-methylpyrrolidin-1-yl]-2,2-difluoropropan-1-one hydrochloride]",<0.018 nM
11,"C[C@H]1COCCN1c1nc(-c2cnc(N)nc2)c2c(n1)N([C@@]1(C)CCN(C(=O)[C@@H](N)C(F)(F)F)C1)CC2.Cl [Example 490, (2R)-2-amino-1-[(3S)-3-{4-(2-aminopyrimidin-5-yl)-2-[(3S)-3-methylmorpholin-4-yl]-5,6-dihydro-7H-pyrrolo[2,3-d]pyrimidin-7-yl}-3-methylpyrrolidin-1-yl]-3,3,3-trifluoropropan-1-one hydrochloride]",<0.018 nM
12,"C[C@H]1COCCN1c1nc(-c2cnc(N)nc2)c2c(n1)N([C@@]1(C)CCN(C(=O)[C@H](N)C(F)(F)F)C1)CC2.Cl [Example 491, (2S)-2-amino-1-[(3S)-3-{4-(2-aminopyrimidin-5-yl)-2-[(3S)-3-methylmorpholin-4-yl]-5,6-dihydro-7H-pyrrolo[2,3-d]pyrimidin-7-yl}-3-methylpyrrolidin-1-yl]-3,3,3-trifluoropropan-1-one hydrochloride]",0.050 nM
13,"C[C@H]1COCCN1c1nc(-c2cnc(N)nc2)c2c(n1)N([C@@]1(C)CCN(C(=O)C3(N)CC3)C1)CC2.Cl [Example 492, (1-aminocyclopropyl)[(3S)-3-{4-(2-aminopyrimidin-5-yl)-2-[(3S)-3-methylmorpholin-4-yl]-5,6-dihydro-7H-pyrrolo[2,3-d]pyrimidin-7-yl}-3-methylpyrrolidin-1-yl]methanone hydrochloride]",0.101 nM
14,"C[C@H]1COCCN1c1nc(-c2cnc(N)nc2)c2c(n1)N([C@@]1(C)CCN(C(=O)C3(CN)CC3)C1)CC2.Cl [Example 493, [1-(aminomethyl)cyclopropyl][(3S)-3-{4-(2-aminopyrimidin-5-yl)-2-[(3S)-3-methylmorpholin-4-yl]-5,6-dihydro-7H-pyrrolo[2,3-d]pyrimidin-7-yl}-3-methylpyrrolidin-1-yl]methanone hydrochloride]",0.061 nM
15,"C[C@H]1COCCN1c1nc(-c2cnc(N)nc2)c2c(n1)N([C@@]1(C)CCN(C(=O)[C@@]3(C)CCN3)C1)CC2.Cl [Example 494, [(3S)-3-{4-(2-aminopyrimidin-5-yl)-2-[(3S)-3-methylmorpholin-4-yl]-5,6-dihydro-7H-pyrrolo[2,3-d]pyrimidin-7-yl}-3-methylpyrrolidin-1-yl][(2R)-2-methylazetidin-2-yl]methanone hydrochloride]",0.046 nM
